Assays:
plasma cholesterol = assay: Plasma cholesterol in cholesterol-cholic acid fed rats; assay type: in vivo; details: Rattus norvegicus, oral gavage; for change in vivo at 20 mg/kg / change in vivo at 40 mg/kg / change in vivo at 100 mg/kg / change in vivo at 60 mg/kg: 96 h, four days, read-out: % Decrease in Plasma Cholesterol
Description: In addition, representative compounds were studied in vivo in cholesterol-cholic acid fed rats to determine the percent decrease of cholesterol in their plasma. This study involves rats which are, prior to testing, trained for one week to eat over a four hour time period each day. Upon initiation of the experiment, the rats diet is supplemented with 1.0 percent cholesterol and 0.25 percent cholic acid. The rats are dosed with the test compound by oral gavage just prior to adjust following the four hour feeding period. This is repeated for four days. On the fifth day, the rats are sacrificed and the total plasma cholesterol content is determined. The percent decrease in elevated plasma cholesterol levels is calculated in comparison with […].

[1] = test system: acyl-coenzyme A: cholesterol acyltransferase; assay: Inhibition of ACAT / intracellular cholesterol esterification in vitro (procedure of Ross et al.); assay type: cell-based; details: for IC50: read-out: IC50
cholesterol absorption = assay: 14C-cholesterol absorption in normal rats (oral gavage); assay type: in vivo; details: Rattus norvegicus, normal rats, read-out: % Inhibition of Absorption
Description: Representative compounds were further tested in vivo to establish the percent inhibition of cholesterol absorption. In this study, normal rats were dosed (oral gavage) with ^14 C-cholesterol plus the test compound. Blood samples taken at six hours and/or intermittently up to twenty-four hours were analyzed and the percent inhibition of cholesterol absorption was calculated.

SMILES	IC50 [1]	% Inhibition ([1]; 25 μM)	other results
CCCCCCC(CCCCCC)N(Cc1ccc(CC(C)C)cc1)C(Nc1ccc(N(C)C)cc1)=C1C(=O)OC(C)(C)OC1=O [Compound 36]	44 nM		change in vivo at 20 mg/kg (plasma cholesterol): -62%; % Inhibition ([1]; 26 μM): 99%
CCCCCC(C)N(Cc1ccc(OCCC(C)C)cc1)C(Nc1ccc(N(C)C)cc1)=C1C(=O)OC(C)(C)OC1=O (stereo not shown) [Compound 38, 5-[[[4-(Dimethylamino)phenyl]amino][[[4-(3-methylbutoxy)phenyl]methyl](1-methylhexylhexyl)amino]methylene]-2,2-dimethyl-1,3-dioxane-4,6-dione]	210 nM	99%	change in vivo at 40 mg/kg (plasma cholesterol): -58%
CCCCCC(C)N(Cc1ccc(OCCC(C)C)cc1)C(Nc1ccc(OC)cc1OC)=C1C(=O)OC(C)(C)OC1=O (stereo not shown) [Compound 35]	540 nM	99%	change in vivo at 40 mg/kg (plasma cholesterol): -55%
CCCCCCCN(Cc1ccc(CCC(C)C)cc1)C(Nc1ccc(OC)cc1OC)=C1C(=O)OC(C)(C)OC1=O [Compound 55, 5-[[(2,4-Dimethoxyphenyl)amino][heptyl[[4-(3-methylbutyl)phenyl]methyl]amino]methylene]2,2-dimethyl-1,3-dioxane-4,6-dione]	3000 nM	97%	change in vivo at 20 mg/kg (plasma cholesterol): -40%
CCCCCc1ccc(CN(C(Nc2ccc(N(C)C)cc2C)=C2C(=O)OC(C)(C)OC2=O)C(C)CCCCC)cc1 (stereo not shown) [Compound 54, 5-[[[4-(Dimethylamino)-2-methylphenyl]amino][(1-methylhexyl)[(4-pentylphenyl)methyl]-amino]methylene]-2,2-dimethyl-1,3-dioxane-4,6-dione]	680 nM	98%	change in vivo at 20 mg/kg (plasma cholesterol): -77%
CCCCCC(C)N(Cc1ccc(CC(C)C)cc1)C(Nc1cccc(OCc2ccccc2)c1)=C1C(=O)OC(C)(C)OC1=O (stereo not shown) [Compound 34]	1100 nM	98%	change in vivo at 20 mg/kg (plasma cholesterol): -32%
CCCCCCCN(Cc1ccc(OCCC(C)C)cc1)C(Nc1ccc(OC)cc1OC)=C1C(=O)OC(C)(C)OC1=O [Compound 6, 5-[[(2,4-Dimethoxyphenyl)amino][heptyl[[4-[(3-methylbutyl)oxy]phenyl]methyl]amino]-methylene]-2,2-dimethyl-1,3-dioxane-4,6-dione]	1500 nM	99%	change in vivo at 100 mg/kg (plasma cholesterol): -42%
CC1(C)OC(=O)C(=C(Nc2cc(C(C)(C)C)c(O)c(C(C)(C)C)c2)Nc2cnc3ccccc3c2)C(=O)O1 [Compound 81, 5-[(3,5-Di-tert-butyl-4-hydroxy-phenylamino)-(quinolin-3-ylamino)-methylene]-2,2-dimethyl-[1,3]dioxane-4,6-dione]			% Inhibition ([1]; 50 μM): 90%; change in vivo at 3 mg/kg (cholesterol absorption; 3 mg/kg): -90%
COc1ccc(NC(=C2C(=O)OC(C)(C)OC2=O)N(Cc2ccc(CC(C)C)cc2)C(C)CCCC(C)(C)O)c(OC)c1 (stereo not shown) [Compound 52, 5-[[(2,4-Dimethoxyphenyl)amino][(5-hydroxy-1,5-dimethylhexyl)[[4-(2-methylpropyl)phenyl]-methyl]amino]methylene]-2,2-dimethyl-1,3-dioxane-2,4-dione]	5600 nM	89%	change in vivo at 10 mg/kg (cholesterol absorption): -29%
CCCCOc1ccc(NC(=C2C(=O)OC(C)(C)OC2=O)N(Cc2ccc(C(C)(C)C)cc2)C(C)CCCC(C)C)cc1 (stereo not shown) [Compound 28, 5-[[(4-Butoxyphenyl)amino][[[4-(1,1-dimethylethyl)phenyl]methyl](1,5-dimethylhexyl)amino]-methylene]-2,2-dimethyl-1,3-dioxane-4,6-dione]	690 nM	98%	change in vivo at 40 mg/kg (plasma cholesterol): -15%
CCCCc1ccc(CN(C(Nc2ccc(N(C)C)cc2)=C2C(=O)OC(C)(C)OC2=O)C(C)CCCC(C)(C)O)cc1 (stereo not shown) [Compound 45, 5-[[[(4-Butylphenyl)methyl](5-hydroxy-1,5-dimethylhexyl)amino][[4-(dimethylamino)phenyl]-amino]-methylene]-2,2-dimethyl-1,3-dioxane-4,6-dione]	5200 nM	90%	change in vivo at 20 mg/kg (plasma cholesterol): -29%
COc1ccc(NC(=C2C(=O)OC(C)(C)OC2=O)N(Cc2ccc(CC(C)C)cc2)C2CCN(CCc3ccccc3)CC2)c(OC)c1 [Compound 8, 5-[[(2,4-Dimethoxyphenyl)amino][[[4-(2-methylpropyl)phenyl]methyl][1-(phenylethyl)-4-piperidinyl]amino]methylene]-2,2-dimethyl-1,3-dioxane-4,6-dione]	5600 nM	85%	change in vivo at 10 mg/kg (cholesterol absorption): -16%
COc1ccc(NC(=C2C(=O)OC(C)(C)OC2=O)N(Cc2ccc(C(C)(C)C)cc2)C(C)CCCC(C)C)c(OC)c1 (stereo not shown) [Compound 29, 5-[[(2,4-Dimethoxyphenyl)amino][[[4-(1,1-dimethylethyl)phenyl]methyl](1,5-dimethylhexyl)-amino]methylene]-2,2-dimethyl-1,3-dioxane-4,6-dione]	230 nM	99%	change in vivo at 100 mg/kg (plasma cholesterol): -84%
CCCCCCCN(Cc1ccc(CCCCC)cc1)C(Nc1ccc(OC)cc1OC)=C1C(=O)OC(C)(C)OC1=O [Compound 14, 5-[[(2,4-Dimethoxyphenyl)amino][heptyl[(4-pentylphenyl)methyl]amino]methylene]-2,2-dimethyl-1,3-dioxane-4,6-dione]	840 nM	99%	change in vivo at 100 mg/kg (plasma cholesterol): -85%; ED50 (plasma cholesterol; fifty percent reduction of plasma cholesterol): 16 mg/kg
CC(C)Cc1ccc(CN(C(Nc2ccc(N(C)C)cc2)=C2C(=O)OC(C)(C)OC2=O)C(C)CCCC(C)(C)O)cc1 (stereo not shown) [Compound 53]	5200 nM	81%	change in vivo at 10 mg/kg (cholesterol absorption): -50%
CCCCCCCN(Cc1ccc(C(C)(C)C)cc1)C(Nc1c(OC)cc(OC)cc1OC)=C1C(=O)OC(C)(C)OC1=O [Compound 59, 5-[[[[4-(1,1-Dimethylethyl)phenyl]methyl]heptylamino][(2,4,6-trimethoxyphenyl)amino]-methylene]-2,2-dimethyl-1,3-dioxane-4,6-dione]	700 nM	94%	change in vivo at 200 mg/kg (cholesterol absorption; 200 mg/kg): -21%
COc1ccc(NC(=C2C(=O)OC(C)(C)OC2=O)N(Cc2ccc(CC(C)C)cc2)C(C)CCCC(C)C)c(OC)c1 (stereo not shown) [Compound 39, 5-[[(2,4-Dimethoxyphenyl)amino][(1,5-dimethylhexyl)[[4-(2-methylpropyl)phenyl]methyl]amino]methylene]-2,2-dimethyl-1,3-dioxane-4,6-dione]	370 nM	99%	change in vivo at 40 mg/kg (plasma cholesterol): -65%
CCCCCCCN(Cc1ccc(OCCC(C)C)cc1)C(Nc1ccc(N(C)C)cc1)=C1C(=O)OC(C)(C)OC1=O [Compound 22, 5-[[[4-(Dimethylamino)phenyl]amino][heptyl[[[4-(3-methylbutyl)oxy]phenyl]methyl]amino]-methylene]-2,2-dimethyl-1,3-dioxane4,6-dione]	370 nM	93%	change in vivo at 60 mg/kg (plasma cholesterol): -46%
CCCCCCCN(Cc1ccc(C(C)(C)C)cc1)C(Nc1ccc(OCc2ccccc2)cc1)=C1C(=O)OC(C)(C)OC1=O [Compound 26]	920 nM	92%	
CCCCC(CC)N(Cc1ccc(CC(C)(C)C)cc1)C(Nc1ccc(N(C)C)cc1C)=C1C(=O)OC(C)(C)OC1=O (stereo not shown) [Compound 66, 5-[[[4-(Dimethylamino)-2-methylphenyl]amino][[[4-(2,2-dimethylpropyl)phenyl]methyl](1-ethylpentyl)amino]methylene]-2,2-dimethyl-1,3-dioxane-4,6-dione]	190 nM	98%	
CCCCCCCN(Cc1ccc(C(C)(C)C)cc1)C(Nc1c(C)cc(N(C)C)cc1C)=C1C(=O)OC(C)(C)OC1=O [Compound 16, 5-[[[4-(Dimethylamino)-2,6-dimethylphenyl]amino][[[4-(1,1-dimethylethyl)phenyl]methyl]heptylamino]methylene]-2,2-dimethyl-1,3-dioxane-4,6-dione]	980 nM	84%	
CCCCC(CC)N(Cc1ccc(CC(C)(C)C)cc1)C(Nc1ccc(N(C)C)cc1)=C1C(=O)OC(C)(C)OC1=O (stereo not shown) [Compound 62]	640 nM	99%	
CCCCCCCC/C=C\CCCCCCCCN(Cc1ccc(C(C)(C)C)cc1)C(Nc1ccc(OC)cc1OC)=C1C(=O)OC(C)(C)OC1=O [Compound 70, 5-[[(2,4-Dimethoxyphenyl)amino][[[4-(1,1-dimethylethyl)phenyl]methyl]((Z)-9-octadecenyl)-amino]methylene]-2,2-dimethyl-1,3-dioxane-2,4-dione]		24%	
CCCCCCCN(Cc1ccc(CC(C)C)cc1)C(Nc1ccc(OC)cc1OC)=C1C(=O)OC(C)(C)OC1=O [Compound 31, 5-[[(2,4,-Dimethoxyphenyl)amino][heptyl[[4-(2-methylpropyl)phenyl]methyl]amino]methylene]-2,2-dimethyl-1,3-dioxane-4,6-dione]	910 nM	97%	change in vivo at 60 mg/kg (plasma cholesterol): -71%
CC(C)Cc1ccc(CN(C(Nc2ccc(N(C)C)cc2)=C2C(=O)OC(C)(C)OC2=O)C(C)CN2CCOCC2)cc1 (stereo not shown) [Compound 51]		66%	

Reference: patent US5399697A, “N,N',N'-trisubstituted-5-bisaminomethylene-1,3-dioxane-4,6-dione inhibitors of acyl-CoA:cholesterol-acyl transferase” (American Home Products Corporation, priority 1993, dated 1995)
